From patent US20100120013A1, “PROCEDURE FOR LONG TERM CORNEAL CULTURE” (MB RESEARCH LABORATORIES, INC., priority 2008, published 2010)

Tested on: excised cultured porcine corneas
Conditions: pig, 5 min, 100 %
Experimental: The toxicological ocular irritation and recovery testing procedure is conducted on excised corneas (53), FIG. 7, according to the following steps. • a) The toxicological ocular irritation and recovery testing procedure begins approximately 24 hours after the corneas are excised. This allows the corneas to be placed in a custom culture media (55) to equilibrate to the culture conditions for 24 hours (57). […] Unsuccessfully treated corneas are discarded (73). • j) The toxicity of the test material is determined by measuring cell vitality, death, or impairment in the cultured corneal tissue via confocal microscopy paired with various vital dyes, whether colored or fluorescent. […]
Also further included is a method for measuring cell death or impairment with NaFL in the cultured corneal tissue according to the following steps. • i) On days “1”, “2”, “3”, “7”, “10”, “14”, and “21” of the toxicological ocular irritation and recovery testing procedure, the percentage of damaged corneal tissue area is determined by staining with 2% sodium fluorescein (NaFL) stain as in the Draize rabbit eye test. • ii) The culture media is examined microscopically throughout the toxicological ocular irritation and recovery testing procedure for presence of contamination.

For `CCO` [ethanol], the “time in culture at which dosed corneas no longer retain NaFL stain (recovery)” value was 3 to 10 days.
